The values below come from patent US20250084056A1, “SUBSTITUTED OXOISOINDOLINYL PIPERIDINE-2,6-DIONE COMPOUNDS” (BRISTOL-MYERS SQUIBB COMPANY, priority 2023, published 2025).

pIC50: −log10 of the molar value.

What all share (format): cell-based
One assay has as its system Phospho-Rb (Ser807/811). As to the kind of experiment: Phospho-Retinoblastoma (pRB) Cellular Assay. The conditions noted are these: Homo sapiens, OVCAR-3, NIH OVCAR3 cells, 24 hours; for pIC50: concentration giving 50% response; for Emax: maximum response, reference compound at 10 μM = 100%, read-out: pRB Ymax. In a few lines: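 OVCAR3 cells seeded overnight, then dosed with serial dilutions for 24 h at 37° C. Lysed with kit mix plus phosphatase inhibitor, ≥4 h at room temperature, read on EnVision; 100% response set by reference compound at 10 μM, giving IC50 and Ymax.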

A further assay addresses GSPT1 (Homo sapiens, UniProt P15170+Q96SW2). As to the kind of experiment: GSPT1 Cellular Degradation Assay (DF15-GSPT1-ePL). More on the design: expressed in transfected cells. The following applies: DF15-GSPT1-ePL cells, 20 hours. In a few lines: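 Human DF15 cells co-expressing a GSPT1–ePL fusion were treated with compound in RPMI 1640/10% FBS for 20 h at 37 °C. GSPT1 level was read by enzyme-fragment-complementation luminescence after 60 min with detection reagent. The reference degrader at […] defined 75% response; DC50 and Dmax were reported.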

For a further assay, the target named is Cyclin E1 (Homo sapiens, UniProt P24864+Q96SW2). As to the kind of experiment: Cyclin E1 Cellular Degradation Assay (MSD). Further details: endogenous in cells; host or cells: OVCAR3. The conditions noted are these: for DC50 / Dmax: Cyclin E1 cellular degradation; for Dmax: maximum degradation; for Ratio of GSPT1 DC50/Cyclin E1 DC50: selectivity for degradation of Cyclin E1 over GSPT1. In a few lines: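 OVCAR3 cells treated with compound for 24 h at 37 °C, lysed, and cyclin E1 measured by MSD sandwich immunoassay (rabbit capture, mouse detection anti-CCNE1). Reference degrader at […] defined 110% response; DC50 and Dmax derived from response.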
Sequence of Cyclin E1 (P24864 whole entry): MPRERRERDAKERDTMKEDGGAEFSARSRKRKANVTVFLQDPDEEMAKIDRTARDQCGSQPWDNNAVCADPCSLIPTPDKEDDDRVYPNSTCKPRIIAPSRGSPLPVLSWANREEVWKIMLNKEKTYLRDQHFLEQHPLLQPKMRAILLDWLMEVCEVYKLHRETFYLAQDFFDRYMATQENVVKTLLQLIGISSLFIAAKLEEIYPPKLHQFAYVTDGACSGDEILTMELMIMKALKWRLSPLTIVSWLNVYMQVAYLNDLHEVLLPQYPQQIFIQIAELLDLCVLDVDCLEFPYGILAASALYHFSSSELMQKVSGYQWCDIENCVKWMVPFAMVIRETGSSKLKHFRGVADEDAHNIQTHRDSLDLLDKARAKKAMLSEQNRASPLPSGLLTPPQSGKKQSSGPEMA
Sequence of Cyclin E1 (Q96SW2 whole entry): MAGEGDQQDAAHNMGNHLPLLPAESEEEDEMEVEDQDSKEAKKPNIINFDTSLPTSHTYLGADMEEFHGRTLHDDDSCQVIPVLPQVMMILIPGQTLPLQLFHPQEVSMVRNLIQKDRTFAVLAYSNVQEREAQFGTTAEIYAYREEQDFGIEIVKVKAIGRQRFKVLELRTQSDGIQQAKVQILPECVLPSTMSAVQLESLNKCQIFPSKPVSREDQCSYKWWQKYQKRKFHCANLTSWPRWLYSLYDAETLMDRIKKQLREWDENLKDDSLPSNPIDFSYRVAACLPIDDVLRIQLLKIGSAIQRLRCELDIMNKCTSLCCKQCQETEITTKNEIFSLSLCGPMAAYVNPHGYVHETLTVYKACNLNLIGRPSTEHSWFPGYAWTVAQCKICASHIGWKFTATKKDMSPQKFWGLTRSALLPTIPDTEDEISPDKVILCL
Sequence of Cyclin E1 (Q16531 whole entry partner): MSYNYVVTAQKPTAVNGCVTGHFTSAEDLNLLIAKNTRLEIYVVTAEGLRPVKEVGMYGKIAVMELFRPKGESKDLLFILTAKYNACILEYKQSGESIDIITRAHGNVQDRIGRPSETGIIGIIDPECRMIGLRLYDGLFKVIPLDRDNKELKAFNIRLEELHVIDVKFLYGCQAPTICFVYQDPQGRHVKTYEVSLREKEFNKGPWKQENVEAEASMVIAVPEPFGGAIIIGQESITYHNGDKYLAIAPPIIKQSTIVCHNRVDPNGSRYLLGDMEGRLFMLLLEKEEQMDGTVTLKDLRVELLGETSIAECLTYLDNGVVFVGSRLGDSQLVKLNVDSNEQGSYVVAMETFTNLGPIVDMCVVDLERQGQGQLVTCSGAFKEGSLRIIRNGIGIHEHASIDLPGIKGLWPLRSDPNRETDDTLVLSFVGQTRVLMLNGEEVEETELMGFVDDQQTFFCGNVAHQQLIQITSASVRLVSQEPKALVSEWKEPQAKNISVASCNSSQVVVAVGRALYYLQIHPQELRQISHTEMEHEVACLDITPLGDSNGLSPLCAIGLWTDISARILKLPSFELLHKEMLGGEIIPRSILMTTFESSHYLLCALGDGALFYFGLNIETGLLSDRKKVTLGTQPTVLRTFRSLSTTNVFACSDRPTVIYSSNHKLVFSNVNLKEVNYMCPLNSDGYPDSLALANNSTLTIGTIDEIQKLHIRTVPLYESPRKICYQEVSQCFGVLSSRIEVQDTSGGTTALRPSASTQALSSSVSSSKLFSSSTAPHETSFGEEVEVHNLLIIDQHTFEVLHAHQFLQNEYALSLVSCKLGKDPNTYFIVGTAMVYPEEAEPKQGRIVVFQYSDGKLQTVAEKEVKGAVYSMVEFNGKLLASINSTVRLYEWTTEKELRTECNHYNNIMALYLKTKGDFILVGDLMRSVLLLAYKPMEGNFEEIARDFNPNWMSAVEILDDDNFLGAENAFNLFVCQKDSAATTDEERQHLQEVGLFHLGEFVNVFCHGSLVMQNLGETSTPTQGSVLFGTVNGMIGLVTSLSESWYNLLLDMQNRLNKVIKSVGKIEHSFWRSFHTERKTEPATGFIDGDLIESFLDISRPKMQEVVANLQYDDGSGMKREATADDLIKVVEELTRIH

Sequence of GSPT1 (P15170 whole entry, the tested form may be a part): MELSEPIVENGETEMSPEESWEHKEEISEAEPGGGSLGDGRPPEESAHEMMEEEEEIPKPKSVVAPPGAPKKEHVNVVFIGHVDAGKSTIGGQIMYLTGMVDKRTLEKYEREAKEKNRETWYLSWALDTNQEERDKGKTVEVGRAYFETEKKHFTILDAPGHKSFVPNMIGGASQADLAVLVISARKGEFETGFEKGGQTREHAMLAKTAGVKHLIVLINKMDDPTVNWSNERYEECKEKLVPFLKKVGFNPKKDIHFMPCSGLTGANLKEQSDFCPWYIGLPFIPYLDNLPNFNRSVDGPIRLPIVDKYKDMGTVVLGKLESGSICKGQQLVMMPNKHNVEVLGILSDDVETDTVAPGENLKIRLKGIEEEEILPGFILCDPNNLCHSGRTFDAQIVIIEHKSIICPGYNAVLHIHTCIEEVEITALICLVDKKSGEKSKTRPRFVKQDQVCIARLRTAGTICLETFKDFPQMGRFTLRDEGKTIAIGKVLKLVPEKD
Sequence of GSPT1 (Q96SW2 whole entry, the tested form may be a part): as the sequence (Q96SW2 whole entry) above
Sequence of GSPT1 (Q16531 whole entry partner, the tested form may be a part): as the sequence (Q16531 whole entry partner) above

Take `CC(C)(O)COc1c(COC(=O)Nc2ccc(Oc3ccc(F)c(F)c3)cc2F)ccc2c1C(=O)N(C1CCC(=O)NC1=O)C2` (stereo not drawn) [Example 161, [2-(2,6-dioxopiperidin-3-yl)-4-(2-hydroxy-2-methylpropoxy)-3-oxo-2,3-dihydro-1H-isoindol-5-yl]methyl N-[4-(3,4-difluorophenoxy)-2-fluorophenyl]carbamate]: in the assay with Phospho-Rb (Ser807/811), the pIC50 is 7.43 and the Emax stood at 129%. In addition, at GSPT1, the DC50 was more than 14000 nM and the Dmax stood at 10%. Besides, at Cyclin E1, the half-maximal degradation concentration (DC50) was determined as 62 nM, the Dmax worked out at 102% and the “Ratio of GSPT1 DC50/Cyclin E1 DC50” value is on record as more than 225.

Consider `O=C1CCC(N2Cc3ccc(COC(=O)Nc4ccc(Oc5ccc(F)c(F)c5)cc4)c(O[C@H]4CC[C@@H](O)CC4)c3C2=O)C(=O)N1` (stereo partly drawn) [Example 167, [2-(2,6-dioxopiperidin-3-yl)-3-oxo-4-{[(1S,4S)-4-hydroxycyclohexyl]oxy}-2,3-dihydro-1H-isoindol-5-yl]methyl N-[4-(3,4-difluorophenoxy)phenyl]carbamate], for which, in the assay with Phospho-Rb (Ser807/811), the pIC50 was 8.10 and the Emax was determined as 148%. For the same compound, at GSPT1, the DC50 is more than 14000 nM and the Dmax is 6%. Also, on Cyclin E1, the DC50 came out at 13 nM, the Dmax was found to be 111% and the “Ratio of GSPT1 DC50/Cyclin E1 DC50” value is >1,042.

Turning to `COc1c(COC(=O)Nc2ccc(Oc3cc(C)cc(C)c3)cc2)ccc2c1C(=O)N(C1CCC(=O)NC1=O)C2` (stereo not drawn) [Example 12, [2-(2,6-dioxopiperidin-3-yl)-4-methoxy-3-oxo-2,3-dihydro-1H-isoindol-5-yl]methyl N-[4-(3,5-dimethylphenoxy)phenyl]carbamate], in the assay with Phospho-Rb (Ser807/811), the pIC50 is 6.32 and the Emax is 111%. At GSPT1, the DC50 is more than 14000 nM and the Dmax came out at 11%. Moreover, at Cyclin E1, the DC50 was found to be 82 nM, the Dmax worked out at 100% and the “Ratio of GSPT1 DC50/Cyclin E1 DC50” value is more than 171.

Turning to `O=C1CCC(N2Cc3ccc(COC(=O)Nc4ccc(Oc5ccc(F)c(F)c5)cc4)c(O[C@@H]4CCOC4)c3C2=O)C(=O)N1` (stereo partly drawn) [Example 153, [2-(2,6-dioxopiperidin-3-yl)-3-oxo-4-[(3R)-oxolan-3-yloxy]-2,3-dihydro-1H-isoindol-5-yl]methyl N-[4-(3,4-difluorophenoxy)phenyl]carbamate], in the assay on Phospho-Rb (Ser807/811), the pIC50 is 7.43 and the Emax is 124%. Moreover, at GSPT1, the DC50 is more than 14000 nM and the Dmax was 19%. At Cyclin E1, the DC50 is 84 nM, the Dmax came to 107% and the “Ratio of GSPT1 DC50/Cyclin E1 DC50” value is listed as more than 166.

On to `O=C1CCC(N2Cc3ccc(COC(=O)Nc4ccc(Oc5ccc(F)cc5)cc4)c(O[C@@H]4CCCOC4)c3C2=O)C(=O)N1` (stereo partly drawn) [Example 144, [2-(2,6-dioxopiperidin-3-yl)-4-[(3R)-oxan-3-yloxy]-3-oxo-2,3-dihydro-1H-isoindol-5-yl]methyl N-[4-(4-fluorophenoxy)phenyl]carbamate], for which, in the assay on Phospho-Rb (Ser807/811), the pIC50 was 7.64 and the Emax came out at 145%. Also, at GSPT1, the DC50 is more than 14000 nM and the Dmax worked out at 4%. Also, on Cyclin E1, it took 106 nM to reach half-maximal degradation (DC50), the Dmax was found to be 103% and the “Ratio of GSPT1 DC50/Cyclin E1 DC50” value is given as more than 133.

As to `COc1cc(Oc2ccc(F)cc2)ccc1NC(=O)OCc1ccc2c(c1OC)C(=O)N(C1CCC(=O)NC1=O)C2` (stereo not drawn) [Example 37, [2-(2,6-dioxopiperidin-3-yl)-4-methoxy-3-oxo-2,3-dihydro-1H-isoindol-5-yl]methyl N-[4-(4-fluorophenoxy)-2-methoxyphenyl]carbamate], in the assay on Phospho-Rb (Ser807/811), the pIC50 was 6.54 and the Emax was determined as 111%. At GSPT1, the DC50 was more than 14000 nM and the Dmax stood at 28%. In addition, at Cyclin E1, it took 107 nM to reach half-maximal degradation (DC50), the Dmax stood at 102% and the “Ratio of GSPT1 DC50/Cyclin E1 DC50” value is given as more than 131.

`COc1c(COC(=O)Nc2ccc(Oc3cccc(Cl)c3Cl)cc2F)ccc2c1C(=O)N(C1CCC(=O)NC1=O)C2` (stereo not drawn) [Example 116, [2-(2,6-dioxopiperidin-3-yl)-4-methoxy-3-oxo-2,3-dihydro-1H-isoindol-5-yl]methyl N-[4-(2,3-dichlorophenoxy)-2-fluorophenyl]carbamate]: in the assay on Phospho-Rb (Ser807/811), the pIC50 is 7.14 and the Emax was found to be 107%. Further, on GSPT1, the 50% degradation concentration (DC50) was more than 14000 nM and the Dmax worked out at 43%. Further, at Cyclin E1, the DC50 was found to be 87 nM, the Dmax was 110% and the “Ratio of GSPT1 DC50/Cyclin E1 DC50” value was more than 160.

With `COc1c(COC(=O)Nc2ccc(Oc3ccccc3Cl)cc2F)ccc2c1C(=O)N(C1CCC(=O)NC1=O)C2` (stereo not drawn) [Example 107, [2-(2,6-dioxopiperidin-3-yl)-4-methoxy-3-oxo-2,3-dihydro-1H-isoindol-5-yl]methyl N-[4-(2-chlorophenoxy)-2-fluorophenyl]carbamate], in the assay on Phospho-Rb (Ser807/811), the pIC50 was 6.97 and the Emax was found to be 124%. Moreover, on GSPT1, it took 10000 nM to reach half-maximal degradation (DC50) and the Dmax was 63%. Besides, on Cyclin E1, half-maximal degradation (DC50) was put at 69 nM, the Dmax turned out to be 108% and the “Ratio of GSPT1 DC50/Cyclin E1 DC50” value is listed as 146.

In the case of `O=C1CCC(N2Cc3ccc(COC(=O)Nc4ccc(Oc5ccc(F)c(F)c5)cc4F)c(O[C@@H]4CCCOC4)c3C2=O)C(=O)N1` (stereo partly drawn) [Example 146, [2-(2,6-dioxopiperidin-3-yl)-4-[(3R)-oxan-3-yloxy]-3-oxo-2,3-dihydro-1H-isoindol-5-yl]methyl N-[4-(3,4-difluorophenoxy)-2-fluorophenyl]carbamate], in the assay with Phospho-Rb (Ser807/811), the pIC50 was 7.42 and the Emax was 133%. At GSPT1, the DC50 was more than 14000 nM and the Dmax is 8%. For the same compound, at Cyclin E1, the DC50 came out at 47 nM, the Dmax came out at 112% and the “Ratio of GSPT1 DC50/Cyclin E1 DC50” value was more than 296.

`COc1c(COC(=O)Nc2ccc(Oc3cc(F)cc(F)c3)cc2)ccc2c1C(=O)N(C1CCC(=O)NC1=O)C2` (stereo not drawn) [Example 13, [2-(2,6-dioxopiperidin-3-yl)-4-methoxy-3-oxo-2,3-dihydro-1H-isoindol-5-yl]methyl N-[4-(3,5-difluorophenoxy)phenyl]carbamate]: in the assay with Phospho-Rb (Ser807/811), the pIC50 is 6.56 and the Emax is 97%. Also, at GSPT1, the DC50 is more than 14000 nM and the Dmax is 7%. Moreover, at Cyclin E1, the DC50 is 55 nM, the Dmax is 113% and the “Ratio of GSPT1 DC50/Cyclin E1 DC50” value was more than 254.

Turning to `COc1c(COC(=O)Nc2ccc(Oc3cc(F)c(F)cc3C)cc2F)ccc2c1C(=O)N(C1CCC(=O)NC1=O)C2` (stereo not drawn) [Example 94, [2-(2,6-dioxopiperidin-3-yl)-4-methoxy-3-oxo-2,3-dihydro-1H-isoindol-5-yl]methyl N-[4-(4,5-difluoro-2-methylphenoxy)-2-fluorophenyl]carbamate], in the assay with Phospho-Rb (Ser807/811), the pIC50 was 6.54 and the Emax came out at 107%. Besides, on GSPT1, the DC50 was more than 14000 nM and the Dmax turned out to be 25%. Further, on Cyclin E1, the DC50 is 198 nM, the Dmax was found to be 106% and the “Ratio of GSPT1 DC50/Cyclin E1 DC50” value is reported as more than 71.

As for `O=C1CCC(N2Cc3ccc(COC(=O)Nc4ccc(Oc5cccc(F)c5F)cc4)c(Oc4ccccc4)c3C2=O)C(=O)N1` (stereo not drawn) [Example 68, [2-(2,6-dioxopiperidin-3-yl)-3-oxo-4-phenoxy-2,3-dihydro-1H-isoindol-5-yl]methyl N-[4-(2,3-difluorophenoxy)phenyl]carbamate], in the assay on Phospho-Rb (Ser807/811), the pIC50 was 7.08 and the Emax worked out at 127%. Moreover, on GSPT1, the DC50 is more than 14000 nM and the Dmax is 16%. At Cyclin E1, the DC50 was determined as 179 nM, the Dmax stood at 107% and the “Ratio of GSPT1 DC50/Cyclin E1 DC50” value is listed as more than 78.

Turning to `COc1c(COC(=O)Nc2ccc(Oc3ccc(F)cc3Cl)cc2F)ccc2c1C(=O)N(C1CCC(=O)NC1=O)C2` (stereo not drawn) [Example 105, [2-(2,6-dioxopiperidin-3-yl)-4-methoxy-3-oxo-2,3-dihydro-1H-isoindol-5-yl]methyl N-[4-(2-chloro-4-fluorophenoxy)-2-fluorophenyl]carbamate], in the assay with Phospho-Rb (Ser807/811), the pIC50 was 7.48 and the Emax was 120%. On GSPT1, the DC50 was more than 14000 nM and the Dmax is 50%. At Cyclin E1, the DC50 worked out at 52 nM, the Dmax came out at 107% and the “Ratio of GSPT1 DC50/Cyclin E1 DC50” value is reported as more than 268.

For `COc1c(COC(=O)Nc2ccc(Oc3ccc(F)c(F)c3)cc2)ccc2c1C(=O)N([C@@H]1CCC(=O)NC1=O)C2` (single isomer, unassigned) [Example 36], in the assay on Phospho-Rb (Ser807/811), the pIC50 was 6.47 and the Emax was 98%. On GSPT1, the DC50 was more than 14000 nM and the Dmax was 28%. At Cyclin E1, half-maximal degradation (DC50) was put at 257 nM, the Dmax was determined as 108% and the “Ratio of GSPT1 DC50/Cyclin E1 DC50” value is more than 54.

With `COc1cc(Oc2cc(F)c(F)cc2Cl)ccc1NC(=O)OCc1ccc2c(c1OC)C(=O)N(C1CCC(=O)NC1=O)C2` (stereo not drawn) [Example 108, [2-(2,6-dioxopiperidin-3-yl)-4-methoxy-3-oxo-2,3-dihydro-1H-isoindol-5-yl]methyl N-[4-(2-chloro-4,5-difluorophenoxy)-2-methoxyphenyl]carbamate], in the assay with Phospho-Rb (Ser807/811), the pIC50 is 6.95 and the Emax stood at 112%. On GSPT1, the DC50 was more than 14000 nM and the Dmax came out at 24%. For the same compound, on Cyclin E1, the DC50 came out at 99 nM, the Dmax stood at 106% and the “Ratio of GSPT1 DC50/Cyclin E1 DC50” value is reported as more than 142.
